What was measured:
Assay type in all cases: cell-based
[1] = test system: aerobic bacteria present in circulation water; assay: Bactericidal test on circulation water from an alkaline fine paper machine, agar plate count (Example 6); details: for killing of bacteria: 3 hours; for re-growth of bacteria: single biocide only, dosages that had yielded an efficient kill, within 1 day
Experimental: Circulation water (pH 8.2, ORP+169 mV) was collected from an alkaline fine paper machine (producing uncoated copy paper) and divided in 11 plastic containers. When two different biocides were dosed in to same container, the peracid was dosed first, the sample mixed thoroughly, and the second biocide was added within 5 to 10 minutes. All biocide dosages are reported as ppm (mg/l) of the commercial product, for example 20 ppm of performic acid (PFA) equilibrium product equals about 2 ppm as performic acid active substance, 12 ppm of BCDMH product equals about 4 ppm as active chlorine and 30 ppm of MCDMH product equals about 3 ppm as active chlorine. After biocide dosing the containers were capped and incubated at paper machine temperature (45° C.) with continuous agitation. The killing efficacy of different biocide dosages was measured 3 hours and 1 day after the biocide dosing using agar plate count method (PCA agar, 45° C., and 2 days).

[2] = test system: biofilm of a mixture of adherent bacteria (Deinococcus geothermalis, Pseudoxanthomonas taiwanensis and Meiothermus silvanus); assay: Test for destructing a biofilm on stainless steel pegs, regrowth of new biofilm stained with safranin (Example 5); design: key: ++++: great amounts of biofilm were formed; ++: clearly reduced formation of the new biofilm, but not the complete inhibition thereof; −: completely inhibiting the new biofilm; details: total contact time 3 hours
Experimental: A test for destructing a biofilm was performed as described in the document FI 117056 B (Kemira Oyj). A biofilm was pregrown on lidplates having stainless steel pegs (3 d, 45° C., agitation at 150 rpm.). Clear filtrate of a fine paper machine served as the water (pH 7.6, ORP 71 mV), while a mixture of adherent bacteria (Deinococcus geothermalis, Pseudoxanthomonas taiwanensis and Meiothermus silvanus) grown in the laboratory was used for inoculation. After identical biofilms were grown on all the pegs of the lids, the lids were removed from the clear filtrate used for cultivation, washed with tap water and placed on plastic plates with 12 wells, one peg per well. 3.5 ml of the clear filtrate from the same paper machine, and the biocides to be tested were added in advance to each well. The pegs with biofilms were first immersed into the wells for 15 minutes, followed by removal of the plates for a moment for the addition of the other components of the biocidal combinations to the wells. Exposure to biocides was continued to attain a total contact time of 3 hours. Then, viability of the biofilms was determined by transferring the peglids to fresh 12-well plates where each well contained 2 ml of sterile cultivation broth, followed by cultivating the plates for 19 hours at 45° C. while mixing at 150 rpm. […]

[3] = test system: aerobic bacteria present in broke; assay: Bactericidal test on dilute broke of a board machine (Example 1); details: BCDMH 30 ppm alone; contact time 24 hours
Experimental: Dilute broke of a board machine (pH 7.8, oxidation reduction potential (ORP) 40 mV) was divided into 10 separate jars, and biocides to be tested were dosed. Concentrations are expressed in ppm (mg/l) of the commercially available product. In tests where two different agents were dosed into a single jar, the jar was closed after the first pipetting, the broke sample was vigorously agitated, followed by the addition of the second agent during 5 to 10 minutes. Jars were incubated under conditions corresponding to those in the broke system (45° C., mixing), and thereafter, viable aerobic bacterial counts were determined by cultivation after exposure periods of 4 and 24 hours.
In this bactericidal test on broke, killing efficacy of BCDMH and ePAA used alone and in combinations were compared, two thirds of BCDMH being replaced in the combinations with peracetic acid used in threefold amounts. For instance BCDMH 10 ppm versus ePAA 30 ppm versus BCDMH 3.3 ppm+ePAA 20 ppm.
The combination “BCDMH 3.3 ppm+ePAA 20 ppm” means that BCDMH was added prior to ePAA.

SMILES	killing of bacteria ([1]; 45 ppm of MCDMH alone)	re-growth of bacteria [1]	formation of new biofilm ([2]; 60 ppm of MCDMH alone)	killing of bacteria ([1]; 12 ppm of BCDMH alone)	formation of new biofilm ([2]; 16 ppm of BCDMH alone)	inhibition of regrowth [3]
CC1(C)C(=O)NC(=O)N1Cl [MCDMH, monochlorodimethyl hydantoin]	most efficient	active re-growth of bacteria had occurred	++++			
CC1(C)C(=O)N(Cl)C(=O)N1Br [BCDMH, bromochlorodimethyl hydantoin]		active re-growth of bacteria had occurred		most efficient	++	inhibited more effectively by BCDMH 30 ppm than PAA alone

Source: patent publication US9272927B2, “Method for preventing growth of microorganisms, and a combination for the prevention of microbial growth” (KEMIRA, OYJ, priority 2006, dated 2016)
